Test results reported in US20230257364A1, “PYRIDAZINONE-BASED COMPOUNDS AS AXL, C-MET, AND MER INHIBITORS AND METHODS OF USE THEREOF” (CMG Pharmaceutical Co., Ltd., priority 2022, published 2023).

Key:
Type in all cases: biochemical
C-MET = C-MET (Homo sapiens, UniProt P08581); experiment: Enzymatic kinase assay (ADP-GLO), C-MET; conditions: 10 μM ATP, poly (Glu4, Tyr1) substrate, 60 min room temperature, luminescence; read-out: Enzymatic assay IC50 (nM) C-MET
Method: (§1) This example illustrates an enzymatic assay to determine the inhibitory activity of exemplary compounds of Formula (I) in an aspect of the invention.
All the kinase reactions were performed in 5 μL using tyrosine kinase buffer with 0.2 μg/μL poly (Glu4, Tyr1) substrate, 10 μM ATP, serial dilution of the inhibitor, and incubated at room temperature for 60 min. After the indicated incubation times, 5 μL ADP-GLO™ reagent (Promega, Madison, Wis.) was added to the reactions and the plate was incubated at room temperature for 40 min. […] All 384-well assay plates were read using a GLOMAX™ Discover Microplate Luminometer from Promega (Madison, Wis.). To plot, analyze the data and calculate all kinase reaction biochemical values, both Microsoft Excel and Prism from GraphPad 7 Software (La Jolla, Calif.) were used.

AXL = target: T1, AXL (Homo sapiens, UniProt P30530); experiment: Enzymatic kinase assay (ADP-GLO), AXL; conditions: 10 μM ATP, poly (Glu4, Tyr1) substrate, 60 min room temperature, luminescence
T1 sequence (P30530 26-894): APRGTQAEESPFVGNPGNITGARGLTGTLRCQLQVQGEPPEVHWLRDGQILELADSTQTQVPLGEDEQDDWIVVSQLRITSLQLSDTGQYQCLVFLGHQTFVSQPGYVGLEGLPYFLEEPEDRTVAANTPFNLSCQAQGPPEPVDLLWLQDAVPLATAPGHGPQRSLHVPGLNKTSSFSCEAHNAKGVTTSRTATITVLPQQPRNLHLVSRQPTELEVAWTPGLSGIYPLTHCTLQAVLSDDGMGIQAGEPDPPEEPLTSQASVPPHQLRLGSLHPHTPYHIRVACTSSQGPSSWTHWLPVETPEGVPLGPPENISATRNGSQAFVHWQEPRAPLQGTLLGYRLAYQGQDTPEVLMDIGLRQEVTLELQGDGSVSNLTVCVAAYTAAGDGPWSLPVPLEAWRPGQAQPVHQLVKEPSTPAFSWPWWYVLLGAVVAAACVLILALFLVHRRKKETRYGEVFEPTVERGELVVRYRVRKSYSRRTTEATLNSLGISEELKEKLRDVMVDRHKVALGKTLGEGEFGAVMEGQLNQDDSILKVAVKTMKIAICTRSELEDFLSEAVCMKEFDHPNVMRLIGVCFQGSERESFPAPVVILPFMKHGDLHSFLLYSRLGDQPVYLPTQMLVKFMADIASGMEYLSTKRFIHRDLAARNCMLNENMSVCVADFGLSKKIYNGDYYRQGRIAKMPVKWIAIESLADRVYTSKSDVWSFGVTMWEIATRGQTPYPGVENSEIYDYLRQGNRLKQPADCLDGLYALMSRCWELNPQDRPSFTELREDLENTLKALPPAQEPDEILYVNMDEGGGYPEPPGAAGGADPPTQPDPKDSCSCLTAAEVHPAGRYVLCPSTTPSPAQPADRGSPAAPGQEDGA
Method: as §1
(§2) All the kinase reactions were performed in 5 μL using tyrosine kinase buffer with 0.2 μg/μL poly (Glu4, Tyr1) substrate, 10 μM ATP, serial dilution of the inhibitor, and incubated at room temperature for 60 min. After the indicated incubation times, 5 μL ADP-GLO™ reagent (Promega, Madison, Wis.) was added to the reactions and the plate was incubated at room temperature for 40 min. Then, 10 μL of kinase detection reagent was added and after an incubation time of 40 min, luminescence was recorded and IC50 values were determined (Table 1). All 384-well assay plates were read using a GLOMAX™ Discover Microplate Luminometer from Promega (Madison, Wis.). To plot, analyze the data and calculate all kinase reaction biochemical values, both Microsoft Excel and Prism from GraphPad 7 Software (La Jolla, Calif.) were used.

MER = target: T2, MER (Homo sapiens, UniProt Q12866); experiment: Enzymatic kinase assay (ADP-GLO), MER; conditions: 10 μM ATP, poly (Glu4, Tyr1) substrate, 60 min room temperature, luminescence
T2 sequence (Q12866 21-999): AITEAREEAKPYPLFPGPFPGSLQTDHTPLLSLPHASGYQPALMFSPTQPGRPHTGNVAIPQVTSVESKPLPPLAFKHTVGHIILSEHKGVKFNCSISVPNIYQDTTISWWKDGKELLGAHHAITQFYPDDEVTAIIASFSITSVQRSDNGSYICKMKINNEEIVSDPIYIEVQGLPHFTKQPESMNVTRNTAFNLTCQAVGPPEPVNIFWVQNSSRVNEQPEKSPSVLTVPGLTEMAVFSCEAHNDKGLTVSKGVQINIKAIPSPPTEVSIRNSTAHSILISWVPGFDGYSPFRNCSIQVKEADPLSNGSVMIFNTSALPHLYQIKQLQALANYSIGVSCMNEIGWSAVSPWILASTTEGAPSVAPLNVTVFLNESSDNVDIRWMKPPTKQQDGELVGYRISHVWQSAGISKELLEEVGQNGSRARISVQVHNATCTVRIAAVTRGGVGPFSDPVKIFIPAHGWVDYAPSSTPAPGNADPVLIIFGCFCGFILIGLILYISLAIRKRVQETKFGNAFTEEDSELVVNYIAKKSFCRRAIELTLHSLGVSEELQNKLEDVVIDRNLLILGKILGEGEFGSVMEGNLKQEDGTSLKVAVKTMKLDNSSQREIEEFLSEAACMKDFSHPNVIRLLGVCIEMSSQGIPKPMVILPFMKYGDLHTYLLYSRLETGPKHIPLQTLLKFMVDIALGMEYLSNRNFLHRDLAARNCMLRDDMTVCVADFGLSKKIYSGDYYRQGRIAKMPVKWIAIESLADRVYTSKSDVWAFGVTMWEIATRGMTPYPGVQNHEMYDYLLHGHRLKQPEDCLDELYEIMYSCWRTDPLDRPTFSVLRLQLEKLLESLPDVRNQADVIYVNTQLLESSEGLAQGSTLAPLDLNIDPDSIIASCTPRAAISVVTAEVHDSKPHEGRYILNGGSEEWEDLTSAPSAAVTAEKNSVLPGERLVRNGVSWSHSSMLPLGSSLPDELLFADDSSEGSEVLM
Method: as §1, §2

C-MET, sequence (P08581 25-1390): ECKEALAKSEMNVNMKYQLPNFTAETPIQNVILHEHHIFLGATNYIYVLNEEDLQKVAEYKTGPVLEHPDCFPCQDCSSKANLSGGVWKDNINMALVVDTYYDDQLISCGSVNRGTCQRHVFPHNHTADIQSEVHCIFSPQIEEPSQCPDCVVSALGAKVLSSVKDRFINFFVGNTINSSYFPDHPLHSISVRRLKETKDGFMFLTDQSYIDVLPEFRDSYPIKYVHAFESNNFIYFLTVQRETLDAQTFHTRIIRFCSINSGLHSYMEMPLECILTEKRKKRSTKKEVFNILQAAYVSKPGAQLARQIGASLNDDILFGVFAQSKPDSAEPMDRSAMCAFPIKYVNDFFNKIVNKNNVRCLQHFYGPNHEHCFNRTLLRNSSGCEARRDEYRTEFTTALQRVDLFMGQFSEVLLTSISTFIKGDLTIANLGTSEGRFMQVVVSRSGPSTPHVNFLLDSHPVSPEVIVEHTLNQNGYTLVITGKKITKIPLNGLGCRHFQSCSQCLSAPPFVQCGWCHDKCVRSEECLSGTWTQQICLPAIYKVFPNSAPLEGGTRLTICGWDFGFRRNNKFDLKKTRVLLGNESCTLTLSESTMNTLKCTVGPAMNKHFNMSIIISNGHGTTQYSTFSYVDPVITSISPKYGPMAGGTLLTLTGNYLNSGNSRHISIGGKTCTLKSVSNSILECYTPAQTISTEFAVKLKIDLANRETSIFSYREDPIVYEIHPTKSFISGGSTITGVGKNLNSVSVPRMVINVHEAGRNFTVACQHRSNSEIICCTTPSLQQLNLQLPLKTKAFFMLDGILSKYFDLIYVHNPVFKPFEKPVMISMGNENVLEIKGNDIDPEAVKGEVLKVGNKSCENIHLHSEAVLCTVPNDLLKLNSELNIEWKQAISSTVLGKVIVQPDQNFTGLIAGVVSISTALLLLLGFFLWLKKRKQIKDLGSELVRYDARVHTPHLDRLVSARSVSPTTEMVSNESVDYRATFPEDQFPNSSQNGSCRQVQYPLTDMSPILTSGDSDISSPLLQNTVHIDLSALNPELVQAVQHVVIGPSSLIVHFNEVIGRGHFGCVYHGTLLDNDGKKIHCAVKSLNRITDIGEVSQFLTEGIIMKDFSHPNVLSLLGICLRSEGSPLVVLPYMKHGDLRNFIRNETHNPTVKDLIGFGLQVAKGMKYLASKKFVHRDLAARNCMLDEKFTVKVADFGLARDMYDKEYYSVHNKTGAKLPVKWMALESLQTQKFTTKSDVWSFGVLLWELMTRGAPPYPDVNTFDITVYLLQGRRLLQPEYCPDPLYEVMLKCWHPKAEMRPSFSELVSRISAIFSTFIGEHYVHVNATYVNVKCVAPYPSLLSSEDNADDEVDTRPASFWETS

Structure (SMILES) | IC50 (C-MET) [nM] | IC50 (AXL) [nM] | IC50 (MER) [nM]
Nc1nccc(Oc2ccc(NC(=O)c3ccnn(-c4ccc(F)cc4)c3=O)cc2F)c1Cl [Example 1, N-(4-(2-amino-3-chloropyridin-4-yloxy)-3-fluorophenyl)-2-(4-fluorophenyl)-3-oxo-2,3-dihydropyridazine-4-carboxamide] | < 1000 | < 1000 | < 1000
Nc1nccc(Oc2ccc(NC(=O)c3ccnn(-c4ccc(F)cc4)c3=O)cc2F)c1C#CC(=O)N1CCOCC1 [Example 2, N-(4-(2-amino-3-(3-morpholino-3-oxoprop-1-ynyl)pyridin-4-yloxy)-3-fluorophenyl)-2-(4-fluorophenyl)-3-oxo-2,3-dihydropyridazine-4-carboxamide] | < 1000 | < 100 | < 10
Nc1nccc(Oc2ccc(NC(=O)c3ccnn(-c4ccc(F)cc4)c3=O)cc2F)c1C#CCN1CCOCC1 [Example 3, N-(4-(2-amino-3-(morpholinoprop-1-ynyl)pyridine-4-yloxy)-3-fluorophenyl)-2-(4-fluorophenyl)-3-oxo-2,3-dihydropyridazine-4-carboxamide] | < 1000 | < 1000 | < 1000
Nc1nccc(Oc2ccc(NC(=O)c3ccnn(-c4ccc(F)cc4)c3=O)cc2F)c1/C=C/C(=O)N1CCOCC1 [Example 4, (E)-N-(4-(2-amino-3-(3-morpholino-3-oxoprop-1-enyl)pyridine-4-yloxy)-3-fluorophenyl)-2-(4-fluorophenyl)-3-oxo-2,3-dihydropyridazine-4-carboxamide] | < 100 | < 1000 | < 100
N#Cc1c(Oc2ccc(NC(=O)c3ccnn(-c4ccc(F)cc4)c3=O)cc2F)ccnc1N [Example 5] | < 10 | < 100 | < 1000
Nc1nccc(Oc2ccc(NC(=O)c3ccnn(-c4ccc(F)cc4)c3=O)cc2F)c1C#CCN1CCNCC1 [Example 6, N-(4-(2-amino-3-(3-(piperazin-1-yl)prop-1-ynyl)pyridin-4-yloxy)-3-fluorophenyl)-2-(4-fluorophenyl)-3-oxo-2,3-dihydropyridazine-4-carboxamide] | < 1000 | < 1000 | < 1000
Nc1nccc(Oc2ccc(NC(=O)c3ccnn(-c4ccc(F)cc4)c3=O)cc2F)c1/C=C/C(=O)N1CCNCC1 [Example 7, (E)-N-(4-(2-amino-3-(3-oxo-3-(piperazin-1-yl)prop-1-enyl)pyridin-4-yloxy)-3-fluorophenyl)-2-(4-fluorophenyl)-3-oxo-2,3-dihydropyridazine-4-carboxamide] | < 1000 | < 1000 | < 1000
Nc1nccc(Oc2ccc(NC(=O)c3ccnn(-c4ccc(F)cc4)c3=O)cc2F)c1C#CCCN1CCOCC1 [Example 8, N-(4-(2-amino-3-(4-morpholinobut-1-ynyl)pyridin-4-yloxy)-3-fluorophenyl)-2-(4-fluorophenyl)-3-oxo-2,3-dihydropyridazine-4-carboxamide] | < 1000 | < 100 | < 1000
Nc1nccc(Oc2ccc(NC(=O)c3ccnn(-c4ccc(F)cc4)c3=O)cc2F)c1C#CC(=O)N1CCC(O)CC1 [Example 9, N-(4-(2-amino-3-(3-(4-hydroxypiperidin-1-yl)-3-oxoprop-1-ynyl)pyridin-4-yloxy)-3-fluorophenyl)-2-(4-fluorophenyl)-3-oxo-2,3-dihydropyridazine-4-carboxamide] | < 100 | < 10 | < 100
COC1CCN(C(=O)C#Cc2c(Oc3ccc(NC(=O)c4ccnn(-c5ccc(F)cc5)c4=O)cc3F)ccnc2N)CC1 [Example 10, N-(4-(2-amino-3-(3-(4-methoxypiperidin-1-yl)-3-oxoprop-1-ynyl)pyridin-4-yloxy)-3-fluorophenyl)-2-(4-fluorophenyl)-3-oxo-2,3-dihydropyridazine-4-carboxamide] | < 1000 | < 100 | < 1000
COCCONC(=O)C#Cc1c(Oc2ccc(NC(=O)c3ccnn(-c4ccc(F)cc4)c3=O)cc2F)ccnc1N [Example 11, N-(4-(2-amino-3-(3-(2-methoxyethoxyamino)-3-oxoprop-1-ynyl)pyridin-4-yloxy)-3-fluorophenyl)-2-(4-fluorophenyl)-3-oxo-2,3-dihydropyridazine-4-carboxamide] | < 10 | < 100 | < 1000
COCCON(C)C(=O)C#Cc1c(Oc2ccc(NC(=O)c3ccnn(-c4ccc(F)cc4)c3=O)cc2F)ccnc1N [Example 12, N-(4-(2-amino-3-(3-((2-methoxyethoxy)(methyl)amino)-3-oxoprop-1-ynyl)pyridin-4-yloxy)-3-fluorophenyl)-2-(4-fluorophenyl)-3-oxo-2,3-dihydropyridazine-4-carboxamide] | < 100 | < 100 | < 100
Nc1nccc(Oc2ccc(NC(=O)c3ccnn(-c4ccc(F)cc4)c3=O)cc2F)c1C#CC(=O)N1CCNCC1 [Example 13, N-(4-(2-amino-3-(3-oxo-3-(piperazin-1-yl)prop-1-ynyl)pyridin-4-yloxy)-3-fluorophenyl)-2-(4-fluorophenyl)-3-oxo-2,3-dihydropyridazine-4-carboxamide] | < 100 | < 100 | < 100
COCCN1CCN(C(=O)C#Cc2c(Oc3ccc(NC(=O)c4ccnn(-c5ccc(F)cc5)c4=O)cc3F)ccnc2N)CC1 [Example 14, N-(4-(2-amino-3-(3-(4-(2-methoxyethyl)piperazin-1-yl)-3-oxoprop-1-ynyl)pyridin-4-yloxy)-3-fluorophenyl)-2-(4-fluorophenyl)-3-oxo-2,3-dihydropyridazine-4-carboxamide] | < 10 | < 10 | < 10
Nc1nccc(Oc2ccc(NC(=O)c3cccn(-c4ccc(F)cc4)c3=O)cc2F)c1C#CC(=O)N1CCNCC1 [Example 15, N-(4-(2-amino-3-(3-oxo-3-(piperazin-1-yl)prop-1-ynyl)pyridin-4-yloxy)-3-fluorophenyl)-1-(4-fluorophenyl)-2-oxo-1,2-dihydropyridine-3-carboxamide] | < 100 | < 100 | < 100
